Assay results taken from US10934267B2, “Alpha-tea salt forms: compositions and uses for treating disease” (Research Development Foundation, priority 2013, dated 2021).

Assays:
[1] = salt forming base; cited from earlier work
[2] = cited from earlier work; for Class (safety and pharmaceutical acceptability of the counter-ions): salt forming base; for Counter Ion Class: Table 6 summary
[3] = Stability of stressed salts and free acid by HPLC total area normalization; settings: for Stability compared to free acid: Table 6 summary, in solution
Method: The scaled up salts and free acid were challenged by heat (solids stored at 25 and 60° C. for 1 week), oxidation (solids stored in oxygen headspace at 25° C. for 1 week), light (solids exposed≥1×ICH International Conference on Harmonization of Technical Requirements for Registration of Pharmaceuticals for Human Use UV confirmatory conditions), and solutions (HPLC diluent-methanol) at 25 and 40° C. for 1 week.
These samples were analyzed, along with unstressed controls, by HPLC to characterize their stability.
Salt candidates were analyzed by total area normalization (TAN). The samples were dissolved in methanol at a concentration of 0.8 mg/mL.
The three salts (lysine, arginine, and tris) were challenged using heat (solids stored at 25 and 60° C. for 1 week), oxidation (solids stored in oxygen headspace at 25° C. for 1 week), light (UV source under ICH confirmatory conditions>200 Whr/m^2), and solutions (in HPLC diluent) at 25 and 40° C. for 1 week. Stressed samples were analyzed using HPLC to determine their impurity profiles.

[4] = Static humidity experiments, gravimetric weight change; format: physicochemical
From the text: Formation of hydrates can be a very slow kinetic process. A second approach to identify hydrate formation is performing static humidity experiments and monitor gravimetrically for weight change.

[5] = Hygroscopicity - Dynamic Vapor Sorption (DVS); settings: for Hydration properties DVS: hydrate formed: Table 6 summary; for DVS total weight gain: at 95% RH, 25° C.
Method: DVS is a gravimetric screening technique that measures how quickly and how much of a solvent (water) is adsorbed by a sample. The relative humidity or vapor concentration surrounding the sample is varied while the change in mass of the sample is measured. […] The mass values at each relative humidity step are used to generate the isotherm. Isotherms are divided in two components: sorption for increasing humidity steps and desorption for decreasing humidity steps.
Samples were analyzed using a TA Q2000 automated dynamic vapor sorption analyzer. The samples were dried at 40° C. for 5 hours and then cooled to 25° C. with a dry nitrogen purge over them until they no longer lost mass at 0% RH.

[6] = physchem; settings: buffered water, pH 4, aqueous buffer, thermodynamic from solid
Method: Milligram size (2 mg) quantities of each sample were placed into a vial. Buffered water (pH 4, 7, and 10) was added and the vials were stirred for a few minutes, followed by visual observation for remaining solids. The solvent was incrementally added until the solids were dissolved, or a maximum volume of solvent (10 mL) was added and the experiment was terminated.

[7] = tested on: 4T1 mammary tumor; test: Anti-tumor efficacy in 4T1 mouse model of metastatic mammary cancer; format: in vivo, BALB/c mice; settings: diet with 3 g/kg chow (0.3% w/w), started 9 days post tumor injection
From the text: The lysine salt was incorporated into standard mouse chow at an amount of 3 g/kg chow (0.3% w/w) by Harlan Teklad, Madison Wis. Half of the mice were placed on an α-TEA-Lys diet after the tumors were established (9 days post tumor injection.) and the rest placed on an analogous nutrient diet without α-TEA-Lys which served as the control group.

[8] = Oxidation Ambient (oxygen headspace, 25° C., 1 week)
[9] = Photo Stability Exposed (UV, ICH confirmatory conditions)
[10] = Solid State Ambient (25° C., 1 week)
[11] = Solution 40° C. Methanol, 1 week
[12] = Solution Ambient Methanol, 1 week

SMILES	Class (safety and pharmaceutical acceptability of the counter-ions) [2]	HLPC Total Area Normalization - Area % Purity [3, 8]	HLPC Total Area Normalization - Area % Purity ([3]; Photo Stability Dark Control)	HLPC Total Area Normalization - Area % Purity [3, 9]	HLPC Total Area Normalization - Area % Purity ([3]; Solid State 60° C., 1 week)	HLPC Total Area Normalization - Area % Purity [3, 10]	HLPC Total Area Normalization - Area % Purity [3, 11]	HLPC Total Area Normalization - Area % Purity [3, 12]	also measured
C[N+](C)(C)CCO [Choline]	I	–	–	–	–	–	–	–	pKa [1]: >11
N=C(N)NCCC[C@H](N)C(=O)O [L-Arginine]	I	–	–	–	–	–	–	–	–
NCCCC[C@H](N)C(=O)O [L-Lysine]	I	–	–	–	–	–	–	–	–
[Ca+2].[OH-].[OH-] [calcium hydroxide]	I	–	–	–	–	–	–	–	–
CN(C)CCO [deanol, N,N-dimethylethanolamine, N,N-dimethylethanolamine]	–	–	–	–	–	–	–	–	pKa [1]: 8.8
[Mg+2].[OH-].[OH-] [magnesium hydroxide]	I	–	–	–	–	–	–	–	–
[K+].[OH-] [potassium hydroxide]	I	–	–	–	–	–	–	–	–
Cc1c(C)c2c(c(C)c1OCC(=O)O)CCC(C)(CCCC(C)CCCC(C)CCCC(C)C)O2.N=C(N)NCCC[C@H](N)C(=O)O (stereo not drawn) [α-TEA arginine salt]	–	98.4 Area %	97.9 Area %	98.5 Area %	98.6 Area %	98.6 Area %	98.2 Area %	98.4 Area %	Stability compared to free acid [3]: more stable; Hydration properties Static 75% RH 30 Days, weight gain ([4]; 75% RH): 0.7 wt %; static humidity weight gain ([4]; 75% RH, 33 days): 0.7%; static humidity weight gain ([4]; 84% RH, 9 days): 2.3%; Hydration properties DVS: hydrate formed [5]: hemihydrate; Counter Ion Class [2]: I
Cc1c(C)c2c(c(C)c1OCC(=O)O)CC[C@@](C)(CCC[C@H](C)CCC[C@H](C)CCCC(C)C)O2 [α-TEA free acid, α-tocopheryloxyacetic acid, reference compound]	–	97.8 Area %	97.7 Area %	98.2 Area %	98.0 Area %	97.8 Area %	94.6 Area %	96.0 Area %	solubility [6]: < 200 µg/mL; DVS conclusion on hydrate formation / deliquescence ([5]; 0 to 95% RH): does not form hydrates or exhibit deliquescence; DVS total weight gain [5]: about 0.2%
Cc1c(C)c2c(c(C)c1OCC(=O)O)CCC(C)(CCCC(C)CCCC(C)CCCC(C)C)O2.NCCCC[C@H](N)C(=O)O (stereo not drawn) [α-TEA lysine salt]	–	98.8 Area %	98.7 Area %	98.8 Area %	98.7 Area %	98.8 Area %	98.2 Area %	98.8 Area %	Stability compared to free acid [3]: more stable; Hydration properties Static 75% RH 30 Days, weight gain ([4]; 75% RH): 0.6 wt% wt %; static humidity weight gain ([4]; 75% RH, 33 days): 0.6%; static humidity weight gain ([4]; 84% RH, 9 days): 1.8%; average tumor size compared to control diet [7]: significant decrease in average tumor size; complete tumor regression, share of the mice treated [7]: about 25%; survival compared to control diet (Kaplan-Meier) [7]: increased survival; Hydration properties DVS: hydrate formed [5]: hydrate; DVS total weight gain [5]: about 12%; DVS residual weight after desorption cycle ([5]; corresponds to a putative hydrate): 2 weight %; Counter Ion Class [2]: I
Cc1c(C)c2c(c(C)c1OCC(=O)O)CCC(C)(CCCC(C)CCCC(C)CCCC(C)C)O2.NC(CO)(CO)CO (stereo not drawn) [α-TEA tris salt]	–	98.5 Area %	98.2 Area %	98.7 Area %	98.4 Area %	98.6 Area %	98.2 Area %	98.5 Area %	Stability compared to free acid [3]: more stable; Hydration properties Static 75% RH 30 Days, weight gain ([4]; 75% RH): 4.0 wt %; static humidity weight gain ([4]; 75% RH, 33 days): 4.0%; Hydration properties DVS: hydrate formed [5]: hemihydrate
